{
  "source": "patent US9375434B2",
  "about": "“Antitumor effect potentiator composed of imidazooxazine compound” (Taiho Pharmaceutical Co., Ltd., priority 2012, dated 2016)",
  "format_in_all_cases": "in vivo, BALB/cA Jcl-nu/nu mice",
  "key": {"[1]": {"tested_on": "Human stomach cancer cell line (NCI-N87)", "assay": "Potentiation of antitumor effect of paclitaxel, NCI-N87 subcutaneous implant in nude mice (Test Example 2)", "protocol": "In the figure, the asterisk represents a result having a statistically significant difference compared with the single-drug administration group. FIG. 1 and Table 10 show the results. […] Ltd.) was prepared to enable administration at a paclitaxel dose of 60 mg/kg/day. Further, test liquids for the groups receiving only Compound-I were prepared to enable administration at Compound-I doses of 8 mg/kg/day, 16 mg/kg/day, and 24 mg/kg/day. […] In the groups receiving the two drugs, Compound-I was administered at doses of 8 mg/kg/day, 16 mg/kg/day, and 24 mg/kg/day, and paclitaxel was administered at a dose of 60 mg/kg/day. The evaluation was performed in the same manner as in Test Example 1. The effect of the combined administration was also statistically determined in the same manner as in Test Example 1. In the figure and the table, the asterisk represents a result having a statistically significant difference compared with the single-drug administration group. FIG. 3 and Table 11 show the results."}, "[2]": {"tested_on": "Human stomach cancer cell line (NCI-N87)", "assay": "Potentiation of antitumor effect of lapatinib, NCI-N87 subcutaneous implant in nude mice (Test Example 4)", "details": "compound-I 16 mg/kg/day p.o. day 1-14 (q.d.)", "protocol": "In the figure, the asterisk represents a result having a statistically significant difference compared with the single-drug administration group. FIG. 1 and Table 10 show the results. […] Lapatinib was prepared by adjusting its dose to 100 mg/kg/day. Further, the test liquid of Compound-I was prepared by adjusting its dose to 16 mg/kg/day. […] The effect of the combined administration was also statistically determined in the same manner as in Test Example 1. In the figure and the table, the asterisk represents a result having a statistically significant difference compared with the single-drug administration group. FIG. 7 and Table 13 show the results."}, "[3]": {"tested_on": "Human stomach cancer cell line (4-1ST)", "assay": "Potentiation of antitumor effect of TS-1, 4-1ST subcutaneous implant in nude mice (Test Example 8)", "protocol": "As an index of antitumor effect, the TV at Day 15 was measured for each of the drug administration groups, and the relative tumor volume (RTV) relative to Day 1 and T/C (%) were calculated by the following formulas to evaluate the antitumor effect. […] In the figure, the asterisk represents a result having a statistically significant difference compared with the single-drug administration group.\nFIG. 1 and Table 10 show the results. TV (mm^3)=(length×width^2)/2 RTV=(TV at Day 15)/(TV at Day 1) T/C(%)=(average RTV value of the test liquid administration group)/(average RTV value of the control group)×100\n(§1) Human stomach cancer cell line (4-1ST) was subcutaneously implanted into the right flank of 6-week-old male BALB/cA Jcl-nu/nu mice, and was used in the same manner as in Test Example 1.\nTS-1 was prepared by mixing FT (tegafur; Taiho Pharmaceutical Co., Ltd.), CDHP (gimeracil; Taiho Pharmaceutical Co., Ltd.) and Oxo (oteracil potassium; Taiho Pharmaceutical Co., Ltd.) at a molar ratio of 1:0.4:1, adding a 0.5% (w/v) HPMC aqueous solution to the mixture at an FT concentration of 1.66 mg/mL, and subjecting the mixture to a ultrasonic treatment to obtain an even suspension (an administration liquid having a double concentration of the liquid in the group of 8.3 mg/kg/day dose). The suspension was diluted two-fold with a 0.5% (w/v) HPMC aqueous solution to a concentration of 0.83 mg/mL, thereby yielding an administration liquid to be used for the group of 8.3 mg/kg/day dose. Further, the test liquid of Compound-I was prepared by adjusting its dose to 16 and 24 mg/kg/day.\nCompound-I and TS-1 were orally administered once a day for 14 days from Day 1. In the combined administration groups, Compound-I at a dose of 16 and 24 mg/kg/day, and TS-1 at a dose of 8.3 mg/kg/day were administered, and the evaluation was performed in the same manner as in Test Example 1. FIGS. 15A and 15B, and Table 17 show the results.\nIn the same manner as in Test Example 7, the effect of the combined administration was also statistically determined. In the figure and the table, the asterisk represents a result having a statistically significant difference compared with the single-drug administration group."}, "[4]": {"tested_on": "Human stomach cancer cell line (4-1ST)", "assay": "Potentiation of effect of trastuzumab (Herceptin), 4-1ST subcutaneous implant in nude mice (Test Example 11)", "details": "Day 1~14, p.o.", "protocol": "As an index of antitumor effect, the TV at Day 15 was measured for each of the drug administration groups, and the relative tumor volume (RTV) relative to Day 1 and T/C (%) were calculated by the following formulas to evaluate the antitumor effect.\nTV (mm^3)=(length×width^2)/2 RTV=(TV at Day 15)/(TV at Day 1) T/C(%)=(average RTV value of the test liquid administration group)/(average RTV value of the control group)×100\nas §1\nAccording to the package insert, 7.2 mL of water for injection was added to a vial containing 150 mg of trastuzumab (Roche Pharma) using a sterilized injection syringe. The resulting 21 mg/mL solution was kept in a freezer. At the time of use, the frozen solution was diluted 10.5-fold with 4.75 mL of physiological saline at a trastuzumab concentration of 2.0 mg/mL, to yield a liquid for administration at a trastuzumab dose of 20 mg/kg/day. The test liquids of Compound-I were prepared to enable administration at doses of 16 and 24 mg/kg/day.\nCompound-I and trastuzumab were administered once a day from Day 1 to 14. In the combined administration groups, Compound-I was administrated at a dose of 16 and 24 mg/kg/day, trastuzumab was administrated at a dose of 20 mg/kg/day, and the evaluation was performed in the same manner as in Test Example 1. FIGS. 17A and 17B and Table 20 show the results. In the medium/Compound I administration group, the test liquid was orally administered once a day for consecutive days. In the trastuzumab administration group, the test liquid was intraperitoneally administered once a day for consecutive days.\nThe effect of the combined administration was statistically determined in the same manner as in Test Example 7."}, "[5]": {"details": "compound-I 8 mg/kg/day p.o. day 1-14"}, "[6]": {"details": "compound-I 16 mg/kg/day p.o. day 1-14"}, "[7]": {"details": "compound-I 24 mg/kg/day p.o. day 1-14"}},
  "data": [
    {"smiles": "CC1(O)CC(N)(c2ccc(-c3nc4n(c3-c3ccccc3)COc3ccncc3-4)cc2)C1", "note": "(stereo not drawn) [compound-I, trans-3-amino-1-methyl-3-(4-(3-phenyl-5H-imidazo[1,2-c]pyrido[3,4-e][1,3]oxazin-2-yl)phenyl)cyclobutanol]", "values": [
      {"measurement": "RTV day 15 Mean ± SD", "setting": "[1]; [5]", "value": "2.02 ± 0.41"},
      {"measurement": "T/C (%)", "setting": "[1]; [5]", "value": 59, "unit": "%"},
      {"measurement": "RTV day 15 Mean ± SD", "setting": "[1]; [6]", "value": "1.32 ± 0.38"},
      {"measurement": "T/C (%)", "setting": "[1]; [6]", "value": 39, "unit": "%"},
      {"measurement": "RTV day 15 Mean ± SD", "setting": "[1]; [7]", "value": "0.98 ± 0.28"},
      {"measurement": "T/C (%)", "setting": "[1]; [7]", "value": 29, "unit": "%"},
      {"measurement": "RTV day 15 Mean ± SD", "setting": "[2]", "value": "1.14 ± 0.11"},
      {"measurement": "T/C (%)", "setting": "[2]", "value": 42, "unit": "%"},
      {"measurement": "RTV day 15 Mean ± SD", "setting": "[3]; [6]", "value": "4.53 ± 0.59"},
      {"measurement": "T/C (%)", "setting": "[3]; [6]", "value": 38.1, "unit": "%"},
      {"measurement": "RTV day 15 Mean ± SD", "setting": "[3]; [7]", "value": "3.83 ± 0.48"},
      {"measurement": "T/C (%)", "setting": "[3]; [7]", "value": 32.2, "unit": "%"},
      {"measurement": "RTV^b) (mean ± SD)", "setting": "[4]; compound-I 16 mg/kg/day", "value": "3.01 ± 0.51"},
      {"measurement": "TGI^c) (%)", "setting": "[4]; compound-I 16 mg/kg/day", "value": 57.5, "unit": "%"},
      {"measurement": "RTV^b) (mean ± SD)", "setting": "[4]; compound-I 24 mg/kg/day", "value": "2.74 ± 0.29"},
      {"measurement": "TGI^c) (%)", "setting": "[4]; compound-I 24 mg/kg/day", "value": 61.4, "unit": "%"}
    ]}
  ]
}
